These results are taken from patent publication US20260083122A1, “METHOD AND AGENT FOR INACTIVATING BACTERIA OR VIRUSES, AND ANTIVIRAL BASE MATERIAL USING SAME” (NISSAN MOTOR CO., LTD., priority 2022, published 2026).

Molecules are shown by their SMILES.

The target in this assay is S-RBD-His (Omicron) (SARS-CoV-2 B.1.1.529 (Omicron) Spike RBD Protein) (Severe acute respiratory syndrome coronavirus 2, UniProt P0DTC2, E484A/G339D/G446S/G496S/K417N/N440K/N501Y/Q493R/Q498R/S371L/S373P/S375F/S477N/T478K/Y505H).

Take `O=[N+]([O-])[O-].O=[N+]1C2CC3CC(C2)CC1C3` [AZADO-Oxo]: the “shift of fluorescence peak (binding amount between spike protein and ACE2)” value is recorded as “a certain inactivation effect was obtained”.
